# From patent US11976083B2, “Inhibitors of peptidylarginine deiminases” (Gilead Sciences, Inc., priority 2020, dated 2024)
# Target: T1, human PAD4 (Homo sapiens, UniProt Q9UM07)
# T1 construct: human PAD4 (NM_012387), A2-P663, was PCR amplified; His-SUMO (N, cleaved yes); made in house; host or cells: E. coli BL21(DE3)
# Test: In vitro PAD4 BAEE biochemical assay
# Settings: BAEE substrate 3 mM, 5 nM PAD4, 2 mM calcium chloride; geometric mean of multiple experiments
# In short: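 Ammonia produced by BAEE deimination (3 mM substrate, 2 h, 25 °C) was read as fluorescent isoindole after o-phthalaldehyde/DTT derivatization, ex 405 nm/em 535 nm. Human PAD4 at 5 nM final, 2 mM calcium, pH 7.6 MOPS; compound preincubated 30 min. IC50s, normalized to BB-Cl-Amidine and DMSO controls, were geometric-mean averaged.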
# T1 sequence (Q9UM07 2-663): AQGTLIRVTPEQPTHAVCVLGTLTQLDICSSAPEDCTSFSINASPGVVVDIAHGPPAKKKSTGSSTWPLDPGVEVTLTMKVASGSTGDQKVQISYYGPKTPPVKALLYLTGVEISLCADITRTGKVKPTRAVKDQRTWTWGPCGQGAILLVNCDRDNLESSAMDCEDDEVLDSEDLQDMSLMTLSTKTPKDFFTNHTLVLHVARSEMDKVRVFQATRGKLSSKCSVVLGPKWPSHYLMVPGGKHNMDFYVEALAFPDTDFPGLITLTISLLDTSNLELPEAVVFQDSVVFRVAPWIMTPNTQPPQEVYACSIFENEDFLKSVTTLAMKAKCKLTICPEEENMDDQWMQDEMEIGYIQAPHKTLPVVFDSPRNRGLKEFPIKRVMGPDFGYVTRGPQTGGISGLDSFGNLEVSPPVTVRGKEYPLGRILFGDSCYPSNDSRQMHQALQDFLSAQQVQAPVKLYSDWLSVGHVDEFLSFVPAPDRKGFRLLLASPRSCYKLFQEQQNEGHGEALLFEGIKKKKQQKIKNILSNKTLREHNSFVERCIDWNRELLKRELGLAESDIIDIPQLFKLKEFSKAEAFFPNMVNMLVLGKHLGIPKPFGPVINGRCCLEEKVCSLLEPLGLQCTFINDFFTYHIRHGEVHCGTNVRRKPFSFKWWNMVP
row,Compound,IC50 [nM]
1,"COc1cc(C(=O)N2CC[C@@H](OC(F)F)[C@@H](N)C2)cc2nc(-c3cc4ccc5nc4n3CC(F)(F)CCCC[C@@](C)(C(F)(F)F)C(=O)N[C@@H]5C)n(C)c12 [Example 730, (8~{R},11~{R})-17-[5-[(3~ {S},4~{R})-3-amino-4-(difluoromethoxy)piperidine-1-carbonyl]-7-methoxy-1-methyl-benzimidazol-2-yl]-3,3-difluoro-8,11-dimethyl-8-(trifluoromethyl)-1,10,19-triazatricyclo [10.5.2.0^{15,18}]nonadeca-12(19),13,15(18),16-tetraen-9-one]",270
2,"COc1cc(C(=O)N2CC[C@@H](OC)[C@@H](N)C2)cc2nc(-c3cc4ccc5nc4n3CCCCCc3cc4ccccc4nc3C(=O)N[C@@H]5C)n(C)c12 [Example 731, (2~{R})-21-[5-[(3~{S},4~{R})-3-amino-4-methoxy-piperidine-1-carbonyl]-7-methoxy-1-methyl-benzimidazol-2-yl]-2-methyl-3,6,20,26-tetrazapentacyclo[18.5.2.0^ {5,14}.0^{7,12}.0^{23,27}] heptacosa-1(26),5(14), 6,8,10,12,21,23(27),24-nonaen-4-one]",140
3,"COc1cc(C(=O)N2CC[C@@H](OC(F)F)[C@@H](N)C2)cc2nc(-c3cc4ccc5nc4n3CCCCCc3cc4ccccc4nc3C(=O)N[C@@H]5C)n(C)c12 [Example 732, (2~{R})-21-[5-[(3~{S},4~{R})-3-amino-4-(difluoromethoxy)piperidine-1-carbonyl]-7-methoxy-1-methyl-benzimidazol-2-yl]-2-methyl-3,6,20,26-tetrazapentacyclo[18.5.2.0^ {5,14}.0^{7,12}.0^{23,27}] heptacosa-1(26),5(14),6,8,10, 12,21,23(27),24-nonaen-4-one]",214
4,"COc1cc(C(=O)N2CC[C@@H](OC)[C@@H](N)C2)cc2nc(-c3cc4ccc5nc4n3CC(F)(F)CCCC[C@](C)(C(F)(F)F)C(=O)N[C@@H]5C)n(C)c12 [Example 733, (8~{S},11~{R})-17-[5-[(3~ {S},4~{R})-3-amino-4-methoxy-piperidine-1-carbonyl]-7-methoxy-1-methyl-benzimidazol-2-yl]-3,3-difluoro-8,11-dimethyl-8-(trifluoromethyl)-1,10,19-triazatricyclo[10.5.2.0^ {15,18}]nonadeca-12(19),13,15(18),16-tetraen-9-one]",96
5,"C[C@H]1NC(=O)[C@@H]2C[C@H]2CCCCCn2c(-c3nc4cc(C(=O)N5CC[C@@H](OC(F)F)[C@@H](N)C5)cc5c4n3CCO5)cc3ccc1nc32 [Example 734, (2~{R},5~{R},7~{R})-14-[6-[(3~{S},4~{R})-3-amino-4-(difluoromethoxy)piperidine-1-carbonyl]-9-oxa-1,3-diazatricyclo[6.3.1.0^{4,12}]dodeca-2,4,6,8(12)-tetraen-2-yl]-2-methyl-3,13,19-triazatetracyclo[11.5.2.0^ {5,7}.0^{16,20}]icosa-1(19), 14,16(20),17-tetraen-4-one]",185
6,"COc1cc(C(=O)N2CC[C@@H](OC)[C@@H](N)C2)cc2nc(-c3cc4ccc5nc4n3CCCCCc3cc4ccccc4nc3C(=O)N(C)[C@@H]5C)n(C)c12 [Example 735, (2~{R})-21-[5-[(3~{S},4~ {R})-3-amino-4-methoxy-piperidine-1-carbonyl]-7-methoxy-1-methyl-benzimidazol-2-yl]-2,3-dimethyl-3,6,20,26-tetrazapentacyclo[18.5.2.0^ {5,14).0^{7,12}.0^ {23,27}]heptacosa-1(26),5(14),6,8,10,12,21,23(27), 24-nonaen-4-one]",143
7,"COc1cc(C(=O)N2CC[C@@H](OC(F)F)[C@@H](N)C2)cc2nc(-c3cc4ccc5nc4n3CCCCCc3cc4ccccc4nc3C(=O)N(C)[C@@H]5C)n(C)c12 [Example 736, (2~{R})-21-[5-[(3~{S},4~{R})-3-amino-4-(difluoromethoxy)piperidine-1-carbonyl]-7-methoxy-1-methyl-benzimidazol-2-yl]-2,3-dimethyl-3,6,20,26-tetrazapentacyclo[18.5.2.0^ {5,14}.0^{7,12}.0^{23,27}] heptacosa-1(26),5(14), 6,8,10,12,21,23(27),24-nonaen-4-one]",304
8,"CO[C@@H]1CCN(C(=O)c2cc(F)c3c(c2)nc(-c2cc4ccc5nc4n2CC(F)(F)CCC[C@@H]2C[C@H]2C(=O)N[C@@H]5C)n3C)C[C@@H]1N [Example 738, (2~{R},5~{R},7~{R})-14-[5-[(3~{S},4~{R})-3-amino-4-methoxy-piperidine-1-carbonyl]-7-fluoro-1-methyl-benzimidazol-2-yl]-11,11-difluoro-2-methyl-3,13,19-triazatetracyclo[11.5.2.0^ {5,7}.0^{16,20}] icosa-1(19),14,16(20), 17-tetraen-4-one]",48
9,CO[C@@H]1CCN(C(=O)c2cc(F)c3c(c2)nc(-c2cc4ccc5nc4n2CC(F)(F)/C=C/C[C@@H]2C[C@H]2C(=O)N[C@@H]5C)n3C)C[C@@H]1N [Example 739],62
10,"CO[C@@H]1CCN(C(=O)c2cc(F)c3c(c2)nc(-c2cc4ccc5nc4n2CCCCCc2nc(Cl)ccc2C(=O)N[C@@H]5C)n3C)C[C@@H]1N [Example 740, (2~{R})-17-[5-[(3~{S},4~ {R})-3-amino-4-methoxy-piperidine-1-carbonyl]-7-fluoro-1-methyl-benzimidazol-2-yl]-8-chloro-2-methyl-3,9,16,22-tetrazatetracyclo [14.5.2.0^{5,10}.0^{19,23}] tricosa-1(22),5(10),6,8,17,19(23),20-heptaen-4-one]",30
11,"C[C@@H]1[C@H](N)CCCN1C(=O)c1cc(F)c2c(c1)nc(-c1cc3ccc4nc3n1CCCCCc1nc(Cl)ccc1C(=O)N[C@@H]4C)n2C [Example 741, (2~{R})-17-[5-[(2~{R},3~{R})-3-amino-2-methyl-piperidine-1-carbonyl]-7-fluoro-1-methyl-benzimidazol-2-yl]-8-chloro-2-methyl-3,9,16,22-tetrazatetracyclo[14.5.2.0^ {5,10}.0^{19,23}]tricosa-1(22),5(10),6,8,17,19(23),20-heptaen-4-one]",33
12,"CO[C@@H]1CCN(C(=O)c2cc(F)c3c(c2)nc(-c2cc4ccc5nc4n2CC(F)(F)/C=C/C[C@@H]2C[C@H]2C(=O)N[C@@H]5C)n3C2CC2)C[C@@H]1N [Example 742, (2~{R},5~{R},7~{R},9~{E})-14-[5-[(3~{S},4~{R})-3-amino-4-methoxy-piperidine-1-carbonyl]-1-cyclopropyl-7-fluoro-benzimidazol-2-yl]-11,11-difluoro-2-methyl-3,13,19-triazatetracyclo[11.5.2.0^ {5,7}.0^{16,20}]icosa-1(19), 9,14,16(20),17-pentaen-4-one]",58
13,"CO[C@@H]1CCN(C(=O)c2cc(F)c3c(c2)nc(-c2cc4ccc5nc4n2CCCCCc2cc(Cl)ncc2C(=O)N[C@@H]5C)n3C)C[C@@H]1N [Example 744, (2~{R})-17-[5-[(3~{S},4~ {R})-3-amino-4-methoxy-piperidine-1-carbonyl]-7-fluoro-1-methyl-benzimidazol-2-yl]-8-chloro-2-methyl-3,7,16,22-tetrazatetracyclo [14.5.2.0^{5,10).0^{19,23}] tricosa-1(22),5(10),6,8,17,19(23), 20-heptaen-4-one]",96
14,"CO[C@@H]1CCN(C(=O)c2cc(F)c3c(c2)nc(-c2cc4ccc5nc4n2CC(F)(F)CCC[C@@H]2C[C@H]2C(=O)N[C@@H]5C)n3C2C[C@H]2F)C[C@@H]1N (some centres unmarked) [Example 745, (2~{R},5~{R},7~{R})-14-[5-[(3~{S},4~{R})-3-amino-4-methoxy-piperidine-1-carbonyl]-7-fluoro-1-[(1~{S},2~{R})-2-fluorocyclopropyl]benzimidazol-2-yl]-11,11-difluoro-2-methyl-3,13,19-triazatetracyclo [11.5.2.0^{5,7}.0^{16,20}]icosa-1(19),14,16(20),17-tetraen-4-one]",22
15,"CO[C@@H]1CCN(C(=O)c2cc(F)c3c(c2)nc(-c2cc4ccc5nc4n2CC(F)(F)CCC[C@@H]2C[C@H]2C(=O)N[C@@H]5C)n3[C@@H]2C[C@@H]2F)C[C@@H]1N [Example 746, (2~{R},5~{R},7~{R})-14-[5-[(3~{S),4~{R})-3-amino-4-methoxy-piperidine-1-carbonyl]-7-fluoro-1-[(1~{R},2~{S})-2-fluorocyclopropyl]benzimidazol-2-yl]-11,11-difluoro-2-methyl-3,13,19-triazatetracyclo [11.5.2.0^{5,7}.0^{16,20}] icosa-1(19),14,16(20), 17-tetraen-4-one]",25
16,"C[C@@H]1[C@H](N)CCCN1C(=O)c1cc(F)c2c(c1)nc(-c1cc3ccc4nc3n1CC(F)(F)CCC[C@@H]1C[C@H]1C(=O)N[C@@H]4C)n2[C@@H]1C[C@@H]1F [Example 747, (2~{R},5~{R},7~{R})-14-[5-[(2~{R},3~{R})-3-amino-2-methyl-piperidine-1-carbonyl]-7-fluoro-1-[(1~{R},2~{S})-2-fluorocyclopropyl]benzimidazol-2-yl]-11,11-difluoro-2-methyl-3,13,19-triazatetracyclo [11.5.2.0^{5,7}.0^{16,20}] icosa-1(19),14,16(20),17-tetraen-4-one]",10
17,"C[C@@H]1[C@H](N)CCCN1C(=O)c1cc(F)c2c(c1)nc(-c1cc3ccc4nc3n1CCCCCc1ncc3ccccc3c1C(=O)N[C@@H]4C)n2C1CC1 [Example 748, (2~{R})-21-[5-[(2~{R},3~ {R})-3-amino-2-methyl-piperidine-1-carbonyl]-1-cyclopropyl-7-fluoro-benzimidazol-2-yl]-2-methyl-3,13,20,26-tetrazapentacyclo[18.5.2.0^ {5,14}.0^{6,11}.0^{23,27}] heptacosa-1(26),5(14),6(11), 7,9,12,21,23(27),24-nonaen-4-one]",25
